Measured values reported in US20230190811A1, “COMPOSITIONS AND METHODS FOR USE IN THE TREATMENT OF CANCER” (Poseida Therapeutics, Inc., priority 2020, published 2023).
Read-outs that look alike come from different tables or passages of the source. One block for each molecule: values may come before it.

Key:
[1] = set-up: plasma level as % of maximal concentration: dose or concentration left out as unconfirmed; conditions: cited from earlier work
[2] = GLP repeat dose intravenous toxicity study of rimiducid in rats; conditions: rat, in vivo
Source text: In vitro and in vivo studies have been conducted by Poseida with rimiducid and the iC9-based safety switch-containing CAR-T cell product P-BCMA-101 with similar results. A GLP repeat dose intravenous toxicity study in rats has recently been conducted by Poseida. […] (see Rimiducid Investigator's Brochure for further detail).

[3] = test system: T cells carrying an iC9-based safety switch gene; conditions: cited from earlier work
[4] = test system: human pan T-cells with iC9 safety switch; assay: iC9 safety switch test: viability of modified T cells incubated with AP1903 (7-AAD flow cytometry); type: cell-based
Source text: Human pan T-cells were nucleofected using an Amaxa 4D nucleofector with one of four piggyBac transposons. Modified T cells receiving the “mock” condition were nucleofected with an empty piggyBac transposon. Modified T cells received either a piggyBac transposon containing a therapeutic agent alone (a sequence encoding a CARTyrin) or a piggyBac transposon containing an integrated iC9 sequence and a therapeutic agent (a sequence encoding a CARTyrin). To test the iC9 safety switch, each of the four modified T cells were incubated for 24 hours with 0, 0.1 nM, 1 nM, 10 nM, 100 nM or 1000 nM AP1903 (an induction agent for […]). Viability was assessed by flow cytometry using 7-aminoactinomycin D (7-AAD), a fluorescent intercalator, as a marker for cells undergoing apoptosis.

cells = conditions: cited from earlier work
relapsed/refractory MM = conditions: standard of care; cited from earlier work
[5] = biological target: T1, B-cell maturation antigen (BCMA), human, expressed on cells (human, UniProt Q02223 1-184); assay: screen of 4300+ human proteins, each individually expressed in human HEK293 cells
T1 construct: whole, on cells; also called Tumor necrosis factor receptor superfamily member 17 (TNFRSF17)
T1 sequence (looked up): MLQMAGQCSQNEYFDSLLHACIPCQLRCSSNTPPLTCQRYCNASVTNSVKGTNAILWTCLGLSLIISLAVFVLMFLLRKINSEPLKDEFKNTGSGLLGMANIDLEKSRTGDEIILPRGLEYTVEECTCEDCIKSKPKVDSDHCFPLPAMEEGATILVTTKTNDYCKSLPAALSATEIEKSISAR
Source text: The Centyrin-Fc fusion protein was screened for binding against 4300+ human proteins. The vast majority of these human proteins represent cell surface membrane proteins, each individually expressed in human HEK293 cells.

Molecule: CC[C@H](C(=O)N1CCCC[C@H]1C(=O)O[C@H](CCc1ccc(OC)c(OC)c1)c1cccc(OCC(=O)NCCNC(=O)COc2cccc([C@@H](CCc3ccc(OC)c(OC)c3)OC(=O)[C@@H]3CCCCN3C(=O)[C@@H](CC)c3cc(OC)c(OC)c(OC)c3)c2)c1)c1cc(OC)c(OC)c(OC)c1 (relative stereo) [AP1903, 2-Piperidinecarboxylic acid, 1-[(2S)-1-oxo-2-(3,4,5-trimethoxyphenyl)butyl]-, 1,2-ethanediylbis[imino(2-oxo-2,1-ethanediyl)oxy-3,1-phenylene[(1R)-3-(3,4-dimethoxyphenyl)propylidene]]ester, [2S-[1(R*),2R*[S*[S*[1(R*),2R*]]]]]-(9C1)]
plasma levels in relation to dose ([1]; 0.01-1.0 mg/kg): directly proportional to dose
plasma level as % of maximal concentration ([1]; 2 hours post-dose): ~7%
plasma level as % of maximal concentration ([1]; 10 hours post-dose): ~1%
well-tolerated doses ([1]; Phase I study): up to 1 mg/kg
safety and tolerability ([1]; all dose levels 0.01-1.0 mg/kg): safe and well tolerated at all dose levels
plasma level as % of maximal concentration [1]: approximately 18%
mean Cmax ([1]; single dose infused IV over 2 hours, 0.01-1.0 mg/kg dose range): 10 to 1275 ng/mL
toxic effect [2]: No noticeable toxic effect
NOAEL ([2]; repeated (three times) intravenous administration): > 15 mg/kg
modified T cells eliminated ([3]; 0.4 mg/kg 2-hour infusion, within 30 minutes following infusion): 90%
GVHD outcome ([3]; 0.4 mg/kg): GVHD completely resolved
adverse events ([3]; clinical studies published to date): no significant adverse events
further depletion of modified T cells ([3]; during the next 24 hours): further log depletion
pharmacokinetics ([3]; human, in vivo): consistent and linear pharmacokinetics
toxicity ([3]; within and above the effective dose range (0.01-1.0 mg/kg)): effectively no toxicity
lowest concentration at which apoptosis is induced ([4]; cells containing iC9 construct, 24 hours incubation): ≤ 0.1 nM
shift of cell population to apoptotic quadrant with increasing induction agent ([4]; cells lacking the iC9 construct (CARTyrin only)): not observed
amount needed in vitro for effective signaling of cells (cells): 10 to 100 nM

Molecule: daratumumab: recently approved standard of care agent (mAb) for multiple myeloma
response rate (relapsed/refractory MM): ≤ 30%

binding result [5]: binds
B1: Centyrin-Fc fusion protein (the Centyrin from P-BCMA-101 fused to Fc) (Fc fusion)
chain: MLPAPKNLVVSRITEDSARLSWTAPDAAFDSFPIRYIETLIWGEAIWLDVPGSERSYDLTGLKPGTEYAVVITGVKGGRFSSPLVASFTT
notes: not shown: Fc part, any linker and the order of the parts are not described
